Data as given in patent publication EP4653445A1, “CDK INHIBITOR AND CRYSTAL FORM OF PHARMACEUTICALLY ACCEPTABLE SALT THEREOF, AND USE THEREOF” (CSPC Zhongqi Pharmaceutical Technology (Shijiazhuang) Co., …, priority 2023, dated 2024).

Legend:
[1] = Solubility comparison in water, SGF, FaSSIF and FeSSIF (HPLC of filtrates, XRPD of filter cakes); settings: SGF, time not stated
[2] = Stability test, samples placed open for 7 days (HPLC and XRPD); format: physicochemical; settings: HPLC
[3] = Dynamic vapor sorption (DVS) test; format: physicochemical; settings: DVS
Experimental: • Instrument: TA Instruments Q5000 SA • Detection method: 20 to 50 mg of the sample was placed in a tared sample basket and automatically weighed, and DVS testing was performed according to the parameters in Table 7: Step Time: 60 min; Equilibration Time per RH%: 1 hour; Total Gas Flow Rate: 200 sccm; Gradient mode: 0%-90%-0% humidity variation, with a humidity variation amount of 10% for each gradient level between 0% and 90%, and gradient endpoint was determined by dm/dt < 0.01% maintained for 10 minutes.

[4] = Grinding or crushing of the crystalline form; format: physicochemical
Excerpt: Table 28 Results of Stability Test

[5] = Stability test, samples placed open for 7 days (HPLC and XRPD); format: physicochemical; settings: for XRPD-7days / Purity (Peak area%) 7 days: open
Excerpt: Subsequently, the samples after 7 days were respectively detected by HPLC and XRPD to determine their chemical and physical stabilities.

[6] = Long-term stability testing; format: physicochemical; settings: 25°C±2°C/60%±5%RH, simulated commercial packaging
[7] = Stress testing (high temperature, high humidity, illumination); format: physicochemical
[8] = Accelerated stability testing; format: physicochemical; settings: 40°C±2°C/75%±5%RH, simulated commercial packaging
[9] = High Humidity (92.5% RH), 7 days
[10] = High Humidity (92.5% RH), 14 days
[11] = High Humidity (92.5% RH), 30 days
[12] = High Temperature (60°C), 7 days
[13] = High Temperature (60°C), 14 days
[14] = High Temperature (60°C), 30 days
[15] = Illumination Testing 4500lx±500lx, 7 days
[16] = Illumination Testing 4500lx±500lx, 14 days
[17] = Illumination Testing 4500lx±500lx, 30 days

Compound: CC(=O)c1c(C)c2cnc(Nc3ccc4c(c3)OC[C@@H]3CN(C5CCN(C)CC5)CCN43)nc2n(C2CCCC2)c1=O [crystalline form A-I of the free base of compound A]
- solubility in SGF [1]: more than 5 mg/mL
- Purity (Peak area%) 0 day [2]: 99.16 Peak area%
- hygroscopic properties ([3]; 0%-90% RH): non-hygroscopic
- weight change ([3]; across 0%-90% RH): approximately 0.17%
- crystalline form after grinding or crushing [4]: remained unchanged
- XRPD-7days ([5]; 40°C /75%RH): Unchanged
- Purity (Peak area%) 7 days ([5]; 40°C /75%RH, HPLC): 99.20 Peak area%
- chemical stability ([5]; 60 °C, 92.5% RH and 40 °C/75% RH for 7 days, HPLC): chemically stable
- XRPD-7days ([5]; 60°C): Unchanged
- Purity (Peak area%) 7 days ([5]; 60°C, HPLC): 99.24 Peak area%
- XRPD-7days ([5]; 92.5%RH): Unchanged
- Purity (Peak area%) 7 days ([5]; 92.5%RH, HPLC): 99.24 Peak area%
- crystalline form (XRPD) after 7 days ([5]; under the three conditions 60 °C, 92.5% RH and 40 °C/75% RH): remained unchanged
- description, loss on drying, relevant substances, crystalline form and content compared with 0 month ([6]; 18 months): basically the same
- Description Appearance ([6]; 0 months): Yellow solid
- Measured content (%) ([6]; 0 months): 99.5%
- Total impurities (%) ([6]; 0 months): 0.84%
- crystalline form ([6]; 0 months): crystalline form A-I of free base
- loss on drying (%) ([6]; 0 months): 0.03%
- Description Appearance ([6]; 3 months): Yellow solid
- Measured content (%) ([6]; 3 months): 100.8%
- Total impurities (%) ([6]; 3 months): 0.89%
- crystalline form ([6]; 3 months): Unchanged
- loss on drying (%) ([6]; 3 months): 0.02%
- Description Appearance ([6]; 6 months): Yellow solid
- Measured content (%) ([6]; 6 months): 100.6%
- Total impurities (%) ([6]; 6 months): 0.75%
- crystalline form ([6]; 6 months): Unchanged
- loss on drying (%) ([6]; 6 months): 0.05%
- Description Appearance ([6]; 9 months): Yellow solid
- Measured content (%) ([6]; 9 months): 99.6%
- Total impurities (%) ([6]; 9 months): 0.73%
- crystalline form ([6]; 9 months): Unchanged
- loss on drying (%) ([6]; 9 months): 0.05%
- Description Appearance ([6]; 12 months): Yellow solid
- Measured content (%) ([6]; 12 months): 100.8%
- Total impurities (%) ([6]; 12 months): 0.78%
- crystalline form ([6]; 12 months): Unchanged
- loss on drying (%) ([6]; 12 months): 0.05%
- Description Appearance ([6]; 18 months): Yellow solid
- Measured content (%) ([6]; 18 months): 98.7%
- Total impurities (%) ([6]; 18 months): 0.71%
- crystalline form ([6]; 18 months): Unchanged
- loss on drying (%) ([6]; 18 months): 0.03%
- Content (%) ([7]; 0 Day): 99.5%
- Description Appearance ([7]; 0 Day): Yellow solid
- Total impurities (%) ([7]; 0 Day): 0.84%
- crystalline form ([7]; 0 Day): crystalline form A-I of free base
- loss on drying (%) ([7]; 0 Day): 0.03%
- Content (%) [7, 9]: 100.2%
- Description Appearance [7, 9]: Yellow solid
- Hygroscopic weight gain (%) [7, 9]: 0.03%
- Total impurities (%) [7, 9]: 0.76%
- loss on drying (%) [7, 9]: 0.06%
- Content (%) [7, 10]: 99.6%
- Description Appearance [7, 10]: Yellow solid
- Hygroscopic weight gain (%) [7, 10]: 0.05%
- Total impurities (%) [7, 10]: 0.78%
- loss on drying (%) [7, 10]: 0.07%
- Content (%) [7, 11]: 101.0%
- Description Appearance [7, 11]: Yellow solid
- Hygroscopic weight gain (%) [7, 11]: 0.09%
- Total impurities (%) [7, 11]: 0.87%
- crystalline form [7, 11]: Unchanged
- loss on drying (%) [7, 11]: 0.05%
- Content (%) [7, 12]: 100.4%
- Description Appearance [7, 12]: Yellow solid
- Total impurities (%) [7, 12]: 0.76%
- loss on drying (%) [7, 12]: 0.05%
- Content (%) [7, 13]: 100.6%
- Description Appearance [7, 13]: Yellow solid
- Total impurities (%) [7, 13]: 0.83%
- loss on drying (%) [7, 13]: 0.05%
- Content (%) [7, 14]: 100.1%
- Description Appearance [7, 14]: Yellow solid
- Total impurities (%) [7, 14]: 0.81%
- crystalline form [7, 14]: Unchanged
- loss on drying (%) [7, 14]: 0.03%
- Content (%) [7, 15]: 101.0%
- Description Appearance [7, 15]: Yellow solid
- Total impurities (%) [7, 15]: 0.76%
- loss on drying (%) [7, 15]: 0.07%
- Content (%) [7, 16]: 100.2%
- Description Appearance [7, 16]: Yellow solid
- Total impurities (%) [7, 16]: 0.79%
- loss on drying (%) [7, 16]: 0.06%
- Content (%) [7, 17]: 100.2%
- Description Appearance [7, 17]: Yellow solid
- Total impurities (%) [7, 17]: 0.84%
- crystalline form [7, 17]: Unchanged
- loss on drying (%) [7, 17]: 0.07%
- stability in stress testing (conclusion) ([7]; high temperature, high humidity and illumination conditions): good stability
- stability under illumination ([7]; illuminance 4500 lx±500 lx, total not less than 1.2×10^6 lux·hr, near-UV not less than 200 W·hr/m^2): relatively stable
- description, loss on drying, relevant substances, crystalline form and content compared with 0 month ([8]; 6 months): basically the same
- Description Appearance ([8]; 0 months): Yellow solid
- Measured content (%) ([8]; 0 months): 99.5%
- Total impurities (%) ([8]; 0 months): 0.84%
- crystalline form ([8]; 0 months): crystalline form A-I of free base
- loss on drying (%) ([8]; 0 months): 0.03%
- Description Appearance ([8]; 1 month): Yellow solid
- Measured content (%) ([8]; 1 month): 100.4%
- Total impurities (%) ([8]; 1 month): 0.80%
- loss on drying (%) ([8]; 1 month): 0.04%
- Description Appearance ([8]; 2 months): Yellow solid
- Measured content (%) ([8]; 2 months): 100.8%
- Total impurities (%) ([8]; 2 months): 0.82%
- loss on drying (%) ([8]; 2 months): 0.02%
- Description Appearance ([8]; 3 months): Yellow solid
- Measured content (%) ([8]; 3 months): 100.6%
- Total impurities (%) ([8]; 3 months): 0.85%
- crystalline form ([8]; 3 months): Unchanged
- loss on drying (%) ([8]; 3 months): 0.02%
- Description Appearance ([8]; 6 months): Yellow solid
- Measured content (%) ([8]; 6 months): 100.9%
- Total impurities (%) ([8]; 6 months): 0.77%
- crystalline form ([8]; 6 months): Unchanged
- loss on drying (%) ([8]; 6 months): 0.08%
